Experimental data reported in paper PMC7522982, “PKIS deep dive yields a chemical starting point for dark kinases and a cell active BRSK2 inhibitor” (Scientific Reports, 2020).

How the values were obtained:
PIM3 = PIM3 (Homo sapiens, UniProt Q86V86); design: purchased Eurofins; method as in earlier work; settings: cited from earlier work
RPS6KA3/RSK2 [1] = target: T1, RPS6KA3/RSK2 (Homo sapiens, UniProt P51812); assay: Eurofins kinase enzymatic radiometric assay; assay type: biochemical; settings: Km of ATP, 9-point curve in duplicate
T1 construct: purchased Eurofins
Description: (§1) Due to our interest in the activity of GW296115 on several understudied IDG kinases, we collected full dose–response curves for all wild type kinases inhibited ≥ 75% in the DiscoverX panel that were offered by Eurofins. Having data in orthogonal formats is a powerful way to confirm inhibitory activity and adds rigor to our results. Eurofins has kinase enzymatic radiometric assays for 35 of the kinases on this list (Table S2) and a kinase enzymatic LANCE assay for one additional kinase (MAP2K5/MEK5).
(§2) Eurofins kinase enzymatic radiometric assays were carried out at the Km of ATP in dose–response (9-pt curve in duplicate) for each kinase for which it was offered.

[2] = test system: BRSK2-induced phosphorylation; assay: Western blot of BRSK2-induced phosphorylation in HEK293T cells; assay type: cell-based
Description: With confirmed cellular activity, we next focused on characterizing the pathways mediated by BRSK2 utilizing GW296115. BRSK2 has a similar kinase domain to AMPK and is activated by LKB1-mediated phosphorylation in the active site at T174[24]–[26]. As previously reported, BRSK2 induces phosphorylation of AMPK substrates. Therefore, we asked whether this BRSK2-induced phosphorylation of AMPK substrates is ablated by GW296115. First, we evaluated the effect of GW296115 on AMPK substrate phosphorylation in HEK293T cells overexpressing wild-type or kinase-dead BRSK2 (Fig. 3B). Specifically, we overexpressed two different kinase-dead BRSK2 constructs, K48A and T174A, and treated cells with 2.5 μM of GW296115 for 2 or 6 h. Compared to cells expressing hcRED control, wild-type BRSK2 overexpression induced AMPK substrate phosphorylation, as measured by phospho-S/T AMPK substrate antibody. This change was not observed when overexpressing kinase-dead variants. BRSK2-induced AMPK substrate phosphorylation was ablated with GW269115 treatment at both 2- and 6-h time-points.
Next we evaluated whether specific bona fide AMPK substrates were phosphorylated by BRSK2. Based on the total pS/T AMPK substrate blots, we decided to check known substrates that match the size of the most robust changes due to BRSK2 overexpression. UNC51-like kinase 1 (ULK1) is a 120 kDa kinase that is member of the autophagy initiation complex, and is phosphorylated by AMPK at multiple residues, S317 and S555, among others[27]–[29]. Therefore, we overexpressed wild type BRSK2 in HEK293T cells and measured changes in pULK1 S317 and S555 following treatment with increasing doses of GW296115 for 2 h. BRSK2 overexpression increased phosphorylation of ULK1 at S317, but not S555. […] However, in samples expressing control hcRED, treatment with GW296115 increased pAMPK T172. We also asked if activating phosphorylation of ULK1 leads to increased phosphorylation of downstream components of the autophagy complex. Therefore we evaluated phosphorylation of S351 on P62 (SQSTM1), which is a stress induced autophagy receptor for ubiquitylated cargo[30]. Due to its central role as a signaling hub, P62 accumulation and phosphorylation serves as a sensor for starvation, oxidative stress, and selective autophagy[30]–[32]. […] Moreover, these phosphorylation events were ablated by GW296115 in a dose dependent manner (Fig. 4B,C).
Western blots were carried out as described previously. HEK293T cells were plated in 6-well format and incubated at 37 °C with 5% CO2 for 12 h. Next, cells were transfected with 1.5 ug of plasmid per well for 24 h and treated with GW296115 (in DMSO). Samples were lysed using standard conditions of RIPA (10% glycerol, 50 mM Tris–HCL, 100 mM NaCl, 2 mM EDTA, 0.1% SDS, 1% Nonidet P-40, and 0.2% Sodium Deoxycholate) supplemented with protease inhibitor cocktail (ThermoFisher Scientific, 78429), phosphatase inhibitor cocktail (ThermoFisher Scientific, 78426), NEM (Thermo Scientific, 23030), and Benzonase (Sigma, E1014). Lysis was carried out on ice over the course of 30 min and resultant lysates were centrifuged at 4 °C for 15 min at 21,000×g. Following normalization of protein concentration via BCA (Pierce, 23225), samples were denatured in NuPAGE LDS buffer (Invitrogen, NP0007) plus 1 mM DTT. Blots were imaged with a LiCor Odyssey imager, and then quantified using ImageStudio 5.2. Finally, ANOVA with multiple comparison was performed for quantitated blots using Prism 8.2.4.

LRRK2 = LRRK2 (Homo sapiens, UniProt Q5S007); assay: Eurofins kinase enzymatic radiometric assay; assay type: biochemical; design: purchased Eurofins; settings: Km of ATP, 9-point curve in duplicate
Description: as §1, §2

PDGFRB = PDGFRB (Homo sapiens, UniProt P09619); assay: Eurofins kinase enzymatic radiometric assay; assay type: biochemical; design: purchased Eurofins; settings: Km of ATP, 9-point curve in duplicate
Description: as §1, §2

PIM2 = PIM2 (Homo sapiens, UniProt Q9P1W9); assay: Eurofins kinase enzymatic radiometric assay; assay type: biochemical; design: purchased Eurofins; settings: Km of ATP, 9-point curve in duplicate
Description: as §1, §2

RPS6KA6/RSK4 = RPS6KA6/RSK4 (Homo sapiens, UniProt Q9UK32); assay: Eurofins kinase enzymatic radiometric assay; assay type: biochemical; design: purchased Eurofins; settings: Km of ATP, 9-point curve in duplicate
Description: as §1, §2

AURKC = AURKC (Homo sapiens, UniProt Q9UQB9); assay: Eurofins kinase enzymatic radiometric assay; assay type: biochemical; design: purchased Eurofins; settings: Km of ATP, 9-point curve in duplicate
Description: as §1, §2

RPS6KA3/RSK2 [3] = assay: DiscoverX scanMAX competition binding assay; design: species or system human
Description: Based on its narrow profile when tested in the combined Nanosyn and TSA panels, GW296115 was included in the recently released Kinase Chemogenomic Set (KCGS)[15]. All of the data presented in the Introduction section was collected prior to the inclusion of GW296115 in KCGS and everything that follows has been subsequently generated. Since its inclusion in PKIS and more recently KCGS, we have carried out a broader round of screening at DiscoverX. This profiling data has not been previously released and is reported here for the first time. GW296115 was profiled against 403 wild type human kinases at 1 μM using the DiscoverX scanMAX screening platform, which employs an active site-directed competition binding assay to quantitatively measure interactions between test compounds and kinases, [16]. GW296115 inhibited 25 kinases > 90% at 1 μM, resulting in a selectivity index (S10) of 0.062 at 1 μM (Table S2, Fig. 1C)[17].
The scanMAX assays were performed at Eurofins DiscoverX Corporation as previously described.

RSK3 = test system: RSK3; design: method as in earlier work; settings: cited from earlier work
[4] = HEK293T overexpressing wild type BRSK2, increasing doses for 2 h

Sequence of AURKC (Q9UQB9 whole entry): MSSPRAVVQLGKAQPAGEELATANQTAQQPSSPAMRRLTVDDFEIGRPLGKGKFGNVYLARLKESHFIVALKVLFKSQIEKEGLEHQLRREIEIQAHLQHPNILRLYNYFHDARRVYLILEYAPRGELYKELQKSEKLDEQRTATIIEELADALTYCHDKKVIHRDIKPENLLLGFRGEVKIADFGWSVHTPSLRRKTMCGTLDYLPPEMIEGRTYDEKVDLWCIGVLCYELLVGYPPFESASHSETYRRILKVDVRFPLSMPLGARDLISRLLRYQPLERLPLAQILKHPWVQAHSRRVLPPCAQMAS
Sequence of RPS6KA6/RSK4 (Q9UK32 whole entry): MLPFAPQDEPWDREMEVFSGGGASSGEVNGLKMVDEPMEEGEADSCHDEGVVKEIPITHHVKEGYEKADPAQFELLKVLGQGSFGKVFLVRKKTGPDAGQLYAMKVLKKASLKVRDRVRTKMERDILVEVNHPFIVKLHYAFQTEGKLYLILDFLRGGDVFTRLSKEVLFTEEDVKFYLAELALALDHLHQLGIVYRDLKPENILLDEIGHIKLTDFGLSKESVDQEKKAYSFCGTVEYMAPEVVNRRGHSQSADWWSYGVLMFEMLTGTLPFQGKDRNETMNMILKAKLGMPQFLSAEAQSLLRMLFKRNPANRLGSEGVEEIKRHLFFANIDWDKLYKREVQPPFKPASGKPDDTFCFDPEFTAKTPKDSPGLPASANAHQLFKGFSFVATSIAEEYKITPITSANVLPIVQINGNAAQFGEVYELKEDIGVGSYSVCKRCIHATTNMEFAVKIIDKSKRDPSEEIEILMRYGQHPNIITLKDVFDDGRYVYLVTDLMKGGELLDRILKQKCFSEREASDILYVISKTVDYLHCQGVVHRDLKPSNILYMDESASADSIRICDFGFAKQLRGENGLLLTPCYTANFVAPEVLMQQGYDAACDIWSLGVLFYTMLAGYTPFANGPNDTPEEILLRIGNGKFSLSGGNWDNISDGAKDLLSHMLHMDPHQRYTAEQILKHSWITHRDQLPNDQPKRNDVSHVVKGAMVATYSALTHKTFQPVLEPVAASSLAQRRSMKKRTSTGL
T1 sequence (P51812 whole entry): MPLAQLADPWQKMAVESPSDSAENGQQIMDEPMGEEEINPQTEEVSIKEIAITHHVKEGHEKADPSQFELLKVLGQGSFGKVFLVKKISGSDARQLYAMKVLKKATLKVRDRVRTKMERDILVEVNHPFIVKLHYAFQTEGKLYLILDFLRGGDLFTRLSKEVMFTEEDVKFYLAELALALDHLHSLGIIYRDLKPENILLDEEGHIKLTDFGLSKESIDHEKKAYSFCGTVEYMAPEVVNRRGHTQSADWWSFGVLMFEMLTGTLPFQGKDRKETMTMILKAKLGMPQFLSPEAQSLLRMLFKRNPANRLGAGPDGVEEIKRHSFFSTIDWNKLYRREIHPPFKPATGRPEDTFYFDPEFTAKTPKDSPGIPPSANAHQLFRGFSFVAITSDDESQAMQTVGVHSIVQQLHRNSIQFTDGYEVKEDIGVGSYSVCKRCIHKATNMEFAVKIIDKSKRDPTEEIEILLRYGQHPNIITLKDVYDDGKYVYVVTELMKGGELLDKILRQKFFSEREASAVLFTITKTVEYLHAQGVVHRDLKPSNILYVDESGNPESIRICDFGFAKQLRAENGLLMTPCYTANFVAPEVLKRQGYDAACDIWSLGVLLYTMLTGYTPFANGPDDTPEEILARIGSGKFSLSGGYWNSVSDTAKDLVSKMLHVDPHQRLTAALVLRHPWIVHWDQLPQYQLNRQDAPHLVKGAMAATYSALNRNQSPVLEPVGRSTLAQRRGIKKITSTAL
Sequence of PIM2 (Q9P1W9 whole entry): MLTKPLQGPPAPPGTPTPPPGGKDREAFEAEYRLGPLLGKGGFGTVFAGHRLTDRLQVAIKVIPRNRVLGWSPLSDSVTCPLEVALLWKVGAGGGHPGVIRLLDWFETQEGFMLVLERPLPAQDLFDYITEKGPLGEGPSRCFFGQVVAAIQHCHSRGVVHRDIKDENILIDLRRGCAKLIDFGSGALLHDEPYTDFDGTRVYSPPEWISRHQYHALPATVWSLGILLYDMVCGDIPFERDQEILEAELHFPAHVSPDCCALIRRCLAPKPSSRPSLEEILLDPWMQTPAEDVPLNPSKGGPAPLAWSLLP
Sequence of LRRK2 (Q5S007 whole entry): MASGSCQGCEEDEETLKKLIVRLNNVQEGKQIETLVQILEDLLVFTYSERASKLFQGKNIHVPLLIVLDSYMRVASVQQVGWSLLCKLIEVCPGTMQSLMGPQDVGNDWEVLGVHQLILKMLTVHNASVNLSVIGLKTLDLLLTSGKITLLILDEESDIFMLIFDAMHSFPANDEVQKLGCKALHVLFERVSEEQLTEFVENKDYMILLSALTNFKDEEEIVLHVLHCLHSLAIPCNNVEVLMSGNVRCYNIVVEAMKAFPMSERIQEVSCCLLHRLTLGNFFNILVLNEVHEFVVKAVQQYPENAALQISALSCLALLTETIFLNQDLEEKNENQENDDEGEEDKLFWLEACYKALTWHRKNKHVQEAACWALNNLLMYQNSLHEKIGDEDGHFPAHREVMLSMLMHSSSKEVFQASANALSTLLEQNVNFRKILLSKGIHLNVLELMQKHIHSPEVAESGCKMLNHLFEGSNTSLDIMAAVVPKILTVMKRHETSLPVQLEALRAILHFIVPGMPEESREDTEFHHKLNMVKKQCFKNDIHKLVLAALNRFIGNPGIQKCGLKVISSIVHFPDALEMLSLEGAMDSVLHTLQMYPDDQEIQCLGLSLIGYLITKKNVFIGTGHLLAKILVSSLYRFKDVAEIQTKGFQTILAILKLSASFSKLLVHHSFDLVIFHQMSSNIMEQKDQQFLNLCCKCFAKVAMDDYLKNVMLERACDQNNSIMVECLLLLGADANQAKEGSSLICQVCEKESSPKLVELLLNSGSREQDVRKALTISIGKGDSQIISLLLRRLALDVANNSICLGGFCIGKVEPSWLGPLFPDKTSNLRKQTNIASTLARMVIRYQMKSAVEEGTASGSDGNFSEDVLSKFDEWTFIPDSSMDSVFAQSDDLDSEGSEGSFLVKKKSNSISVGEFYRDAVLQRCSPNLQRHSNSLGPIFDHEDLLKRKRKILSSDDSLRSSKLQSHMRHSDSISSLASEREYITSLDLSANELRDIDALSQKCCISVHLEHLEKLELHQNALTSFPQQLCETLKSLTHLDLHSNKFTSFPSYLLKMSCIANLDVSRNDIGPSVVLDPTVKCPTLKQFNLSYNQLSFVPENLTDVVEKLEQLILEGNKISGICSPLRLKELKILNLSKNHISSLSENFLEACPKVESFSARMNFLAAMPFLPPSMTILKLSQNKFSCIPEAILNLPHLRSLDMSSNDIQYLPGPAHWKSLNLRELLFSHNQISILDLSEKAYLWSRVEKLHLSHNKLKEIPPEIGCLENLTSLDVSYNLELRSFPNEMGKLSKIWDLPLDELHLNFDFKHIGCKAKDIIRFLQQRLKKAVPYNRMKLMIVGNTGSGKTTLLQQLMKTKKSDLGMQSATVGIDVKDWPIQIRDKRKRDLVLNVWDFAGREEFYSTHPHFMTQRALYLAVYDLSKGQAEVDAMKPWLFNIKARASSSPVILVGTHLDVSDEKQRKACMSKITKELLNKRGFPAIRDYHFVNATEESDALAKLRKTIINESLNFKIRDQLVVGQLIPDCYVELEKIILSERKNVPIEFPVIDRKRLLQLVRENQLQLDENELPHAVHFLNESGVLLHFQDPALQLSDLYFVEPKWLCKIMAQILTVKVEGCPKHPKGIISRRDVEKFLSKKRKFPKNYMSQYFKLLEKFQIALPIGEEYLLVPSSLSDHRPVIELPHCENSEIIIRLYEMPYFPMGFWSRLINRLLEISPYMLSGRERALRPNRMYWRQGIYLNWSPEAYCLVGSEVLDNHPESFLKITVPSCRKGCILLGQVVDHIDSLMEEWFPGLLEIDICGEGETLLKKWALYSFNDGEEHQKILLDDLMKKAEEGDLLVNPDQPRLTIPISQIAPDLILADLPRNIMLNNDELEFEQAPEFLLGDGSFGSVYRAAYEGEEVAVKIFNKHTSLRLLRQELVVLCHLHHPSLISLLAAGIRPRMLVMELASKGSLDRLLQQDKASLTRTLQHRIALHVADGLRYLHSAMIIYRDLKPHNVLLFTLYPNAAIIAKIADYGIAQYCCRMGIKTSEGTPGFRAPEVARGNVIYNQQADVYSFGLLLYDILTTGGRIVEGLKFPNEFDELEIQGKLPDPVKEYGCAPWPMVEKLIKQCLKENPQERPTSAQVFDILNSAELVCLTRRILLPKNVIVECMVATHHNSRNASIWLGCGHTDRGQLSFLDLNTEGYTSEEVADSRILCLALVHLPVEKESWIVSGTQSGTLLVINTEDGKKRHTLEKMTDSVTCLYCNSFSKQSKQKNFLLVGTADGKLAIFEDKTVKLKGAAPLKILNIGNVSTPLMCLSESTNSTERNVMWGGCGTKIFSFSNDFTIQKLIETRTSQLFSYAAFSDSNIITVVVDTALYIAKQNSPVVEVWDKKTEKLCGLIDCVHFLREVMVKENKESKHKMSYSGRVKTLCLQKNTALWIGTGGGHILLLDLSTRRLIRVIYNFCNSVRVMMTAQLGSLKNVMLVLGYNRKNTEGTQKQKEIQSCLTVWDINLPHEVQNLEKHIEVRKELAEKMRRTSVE

In the case of `COc1ccc2[nH]c3c4[nH]c5ccc(OC)cc5c4c4c(c3c2c1)C(=O)NC4=O` [GW296115], the “TSA ΔTm at 10 μM (°C)” value (PIM3) is listed as 12.0 °C, the IC50 (RPS6KA3/RSK2 [1]) is listed as 11 nM and the “BRSK2-induced phosphorylation of ULK1 S317” value [2, 4] is listed as “decreased dose-dependently”. The “pP62 S351 following BRSK2 overexpression” value [2, 4] was “dose dependently downregulated”, the “BRSK2-induced AMPK substrate phosphorylation (phospho-S/T AMPK substrate antibody)” value ([2]; HEK293T overexpressing wild-type BRSK2, 2.5 μM for 2 or 6 h) was “ablated” and the “phosphorylation of BRSK2 at T174” value ([2]; HEK293T overexpressing wild-type or K48A BRSK2) was “hyper-phosphorylated”. The “phosphorylation at the LKB1 target site (T172) on AMPK” value ([2]; HEK293T, 2.5 μM for 2 or 6 h) was “did not inhibit”, the IC50 (LRRK2) was 25 nM and the IC50 (PDGFRB) was over 10000 nM. For the same molecule, the IC50 (PIM2) was 10 nM, the IC50 (RPS6KA6/RSK4) was 12 nM and the IC50 (AURKC) was 4100 nM. The “DiscoverX % Inhibition at 1 μM” value (RPS6KA3/RSK2 [3]) was 84% and the “Nanosyn % Inhibition at 1 μM” value (RSK3) was 92%.
